# “Also recorded” adds a separate entry of the source. [5mC] = 5-methylcytosine
# Tests used:
# [1] = system: dendritic cells, NK cells, and CD8+ T-cells; experiment: cytokine release assay after subcutaneous immunization; format: in vivo, C57BI/6 mice; details: lipid encapsulated; 100 μg ODN + 20 μg antigen s.c. q7d×3; FIGS. 10 and 11
# Experimental: To monitor immunological response to subcutaneous immunization, antigen specific cellular immune responses were monitored using MHC Class.l-tetramer analyses, cytotoxicity assays and cytokine release assays while humoral immune responses were monitored by measuring plasma antibody levels. Cellular and humoral responses were assessed in C57BI/6 and Balb/C mice respectively (5 animals per group). For analysis of the cellular response, mice were immunized subcutaneously with 3 injections on a q7d×3 dosing regimen on Days 0, 7 and 14 at a dose of 100 μg oligonucleotide in combination with 20 μg of antigen . The spleen, liver, lymph node and blood tissues were collected on Day 21. Solid tissues were mechanically dissociated and cells were processed to collect mononuclear cells. […]
# The aim of the cytokine release assay is to detect antigen-specific immune effector cells that are activated to produce and secrete cytokines, specifically IFN-γ, in response to stimulation with a specific antigen. Cells were isolated from the spleen, liver, blood and lymph nodes of immunized animals and analyzed using the Cytokine Secretion Assay (Miltenyi Biotec). […] Cells were then labeled with fluorescently labeled antibodies against IFN-γ and various phenotype markers and analyzed by flow cytometry to allow detection of specific cell types that were activated to secrete IFN-γ. […]
# [2] = system: EG.7 Ova expressing tumor cells; experiment: prophylactic anti-tumor efficacy, EG7-OVA tumor model, q7d×3; format: in vivo, C57BI/6 mice
# Experimental: Efficacy studies. E.G7-OVA or EL-4 thymoma cell lines were used throughout the study. These cells were cultured in vitro according to established methods. […] Tumor measurements were made by repeated perpendicular measurements of tumor dimensions and using the formula: […]
# Anti-tumor efficacy induced by subcutaneous immunization was assessed in C57BI/6 (5 animals per group) in a prophylactic immunization model. Mice were immunized subcutaneously with 3 injections on a q7d×3 dosing regimen on Days 0, 7 and 14 at a dose of 100 μg oligonucleotide and 20 μg of OVA antigen dose. […] Mice were monitored 3 times weekly to assess tumor growth and weight gain. Control mice were injected with one of PBS or HBS and […] of OVA antigen on the same schedule described above. Oligonucleotides were encapsulated in a lipid particle having a lipid composition of one of POPC: CHOL: DODAP:PEGCer14 or DSPC: CHOL: DODAP:PEGCer14 each in a ratio of 25:45:20:10. All comparisons of methylated and unmethylated oligonucleotides were done using like lipid particles. Results from these efficacy experiments are detailed in FIGS. 12-15, 18-21, and 25-28. Day 0 on each of the Figures is the day each animal was challenged with the tumor.
# dendritic cells = experiment: expansion of dendritic cells (CD11c, DEC205) in spleen, blood and lymph nodes; format: in vivo, ICR mice; details: lipid encapsulated; single i.v. injection 20 mg/kg; versus PBS control = 100%; 20 mg/kg
# Experimental: ICR mice were immunized with a single intravenous injection of encapsulated oligonucleotides at a dose of 20 mg/kg and the control ICR mouse was injected with PBS. […] Each of these markers are specific to dendritic cells though they may represent different cell sub-populations. In each of FIGS. 4 and 5 the control was plotted as equivalent to 100% and the effect of ODN1m for each backbone configuration was plotted as a percentage of that control.
# B16/BL6 murine melanoma = experiment: therapeutic anti-tumor efficacy, B-16 melanoma tumor model; format: in vivo, C57BI/6 mice; details: lipid encapsulated (DSPC:CHOL:DODAP:PEGCer14); 20 mg/kg ODN i.v. every other day from day 4
# Experimental: Anti-tumor efficacy induced by intravenous tail immunization was assessed in C57BI/6 (8 animals per group) in a therapeutic immunization model. Animals were challenged with a subcutaneous injection of 3.0×10^5 […] B16/BL6 murine melanoma expressing tumor cells on Day-0. Mice were then treated intravenously every other day starting on day 4 for 14 days at a dose of 20 mg/kg ODN. Mice were monitored every other day to assess tumor growth and weight gain. Control mice were injected with HBS on the same schedule described above. Oligonucleotides were encapsulated in a lipid particle having a lipid composition of DSPC: CHOL: DODAP:PEGCer14 each in a ratio of 25:45:20:10. Results from this efficacy experiments are detailed in FIGS. 16 and 17. Day 0 on each of the Figures is the day each animal was challenged with the tumor.
# B16 cell target = experiment: CTL response to B16 cell target after multiple epitope immunization; format: in vivo, C57BL/6 mice; details: encapsulated PS-ODN 1m (POPC:Chol:DODMA:PEG-DMG) with TRP2 and Gp100 peptides or B16 lysate; 3 injections
# Experimental: Targeting multiple antigens and MHC alleles might be achieved by using multiple recombinant antigen mixtures of synthetic peptide epitopes. To improve the immune response against these multi-epitope antigens several adjuvants are under assay. This experiment employs encapsulated PS-ODN 1 m using POPC:Chol:DODMA:PEG-DMG (25:45:20:10 molar ratio) in combination with two murine melanoma antigens TRP2 (H2Kb, […]) and Gp100 (H2Db, […]). C57BL/6 mice were injected 3 times with either each antigen, or both, in the presence of encapsulated PS-ODN 1 m. As positive control we used dendritic cells known to be potent in inducing CTL responses. B16 lysate containing multiple epitopes was also assayed either with ODN1m or DC for the ability to induce multi-epitope immunity. Immune response was assessed by the ability of CD8+ T cells to mediate cytotoxicity against tumor cells in an antigen-specific manner.
substance,measurement,setting,value
"ODN1m: 5′-TAAZGTTGAGGGGCAT-3, SEQ ID NO: 4, Z = methylated cytosine (DNA TAACGTTGAGGGGCAT; DNA, [5mC] at 4, backbone not given here; tested with both phosphodiester and phosphorothioate backbones)","immune stimulation (cytokine secretion of dendritic cells, NK cells, CD8+ T-cells), methylated normalized to unmethylated ODN",[1],"consistently at least equivalent to, and often better than"
same,reduction in tumor growth,"[2]; free ODN, 100 μg ODN + 20 μg OVA s.c. q7d×3, tumor challenge Day 21",approached the rate of the control animal
same,reduction in tumor growth,"[2]; lipid encapsulated ODN, PO backbone, 100 μg ODN + 20 μg OVA s.c. q7d×3",therapeutic efficacy was greatest with the methylated version 32 days after transplantation
same,reduction in tumor growth,"[2]; lipid encapsulated ODN, PS backbone, 100 μg ODN + 20 μg OVA s.c. q7d×3",equal in therapeutic efficacy in comparison to the unmethylated ODN1; also recorded: improved efficacy
same,percentage of tumor free animals,"[2]; lipid encapsulated ODN, FIG. 19A",greater percentage of tumor free animals
same,number of animals remaining in the study,"[2]; lipid encapsulated ODN, FIG. 19B",essentially identical throughout the study
same,survival rate of mice,"[2]; lipid encapsulated ODN, versus unmethylated counterpart",increase in the survival rate
same,expansion of CD11c positive dendritic cells,dendritic cells,stimulated the expansion of CD11c positive dendritic cells in spleen cells and whole blood cells but not in lymphoid tissue; also recorded: stimulated the expansion of CD11c positive cells in spleen and whole blood
same,reduction of tumor volume,B16/BL6 murine melanoma,increased its efficacy in reducing tumor volume
same,CTL response,B16 cell target,a CTL response was raised against both antigens

# Reference: patent publication US20040013649A1, “Cancer vaccines and methods of using the same” (Inex Pharmaceuticals Corporation, priority 2002, published 2004)
